This is an account of results in patent US20080200454A1, “CARBON-LINKED TETRAHYDRO-PYRAZOLO-PYRIDINE MODULATORS OF CATHEPSIN S” (priority 2007, published 2008).

SMILES strings stand for the structures.

Recombinant human cathepsin S (CatS), sequence (P25774 115-331): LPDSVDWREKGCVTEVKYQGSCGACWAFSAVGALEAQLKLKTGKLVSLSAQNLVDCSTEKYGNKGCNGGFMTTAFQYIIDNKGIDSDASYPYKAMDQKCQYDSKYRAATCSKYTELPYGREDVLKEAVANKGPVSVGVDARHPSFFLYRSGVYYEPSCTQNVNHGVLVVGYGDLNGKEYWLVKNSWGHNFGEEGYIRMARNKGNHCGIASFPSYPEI

One assay addresses Recombinant human cathepsin S (CatS) (Homo sapiens, UniProt P25774). The assay is described as follows: Recombinant human cathepsin S (CatS) inhibition assay, fluorogenic substrate Z-Valine-Valine-Arginine-AMC.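 Also: Baculovirus-expressed CatS in pH 5.0 sodium acetate buffer with DTT and NaCl, fluorescence read each minute over 20 min, inhibition derived from rate slope.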
Conditions: not given
For orientation: IC50 means the point on the concentration scale where inhibition reaches its midpoint. On to `CS(=O)(=O)N1CCc2c(c(-c3ccc(Cl)c(CCc4ccc(Cl)c(CNCc5ccccc5)c4)c3)nn2CCCN2CCOCC2)C1` [Example 288, 1-[2-Chloro-5-(2-{2-chloro-5-[5-(methylsulfonyl)-1-(3-morpholin-4-ylpropyl)-4,5,6,7-tetrahydro-1H-pyrazolo[4,3-c]pyridin-3-yl]phenyl}ethyl)phenyl]-N-(phenylmethyl)methanamine], for which the 50% inhibitory concentration (IC50) worked out at 120 nM.

As for `NC(=O)N1CCc2c(c(-c3ccc(Cl)c(C#Cc4ccc(Cl)c(CNCc5ccccc5)c4)c3)nn2CCCN2CCSCC2)C1` [Example 291, 3-{4-Chloro-3-[(4-chloro-3-{[(phenylmethyl)amino]methyl}phenyl)ethynyl]phenyl}-1-(3-thiomorpholin-4-ylpropyl)-1,4,6,7-tetrahydro-5H-pyrazolo[4,3-c]pyridine-5-carboxamide], the IC50 worked out at 30 nM. In the case of `COC(=O)CNCc1cc(C#Cc2cc(-c3nn(CCCN4CCOC[C@@H]4C)c4c3CN(C(=O)C(N)=O)CC4)ccc2Cl)ccc1Cl` [Example 294, Methyl N-[(5-{[5-(5-[amino(oxo)acetyl]-1-{3-[(3S)-3-methylmorpholin-4-yl]propyl}-4,5,6,7-tetrahydro-1H-pyrazolo[4,3-c]pyridin-3-yl)-2-chlorophenyl]ethynyl}-2-chlorophenyl)methyl]glycinate], the half-inhibitory concentration (IC50) was 20 nM. Still for that read-out and setting: with `C[C@H]1COCCN1CCCn1nc(-c2ccc(Cl)c(C#Cc3ccc(Cl)c(CNCCO)c3)c2)c2c1CCN(C(=O)C(N)=O)C2` [Example 295, 2-(3-{4-Chloro-3-[(4-chloro-3-{[(2-hydroxyethyl)amino]methyl}phenyl)ethynyl]phenyl}-1-{3-[(3S)-3-methylmorpholin-4-yl]propyl}-1,4,6,7-tetrahydro-5H-pyrazolo[4,3-c]pyridin-5-yl)-2-oxoacetamide] the figure was 30 nM; with `CS(=O)(=O)N1CCc2c(c(-c3cccc(CCc4cccc(O)c4)c3)nn2CCCN2CCOCC2)C1` [Example 296, 3-(2-{3-[5-(Methylsulfonyl)-1-(3-morpholin-4-ylpropyl)-4,5,6,7-tetrahydro-1H-pyrazolo[4,3-c]pyridin-3-yl]phenyl}ethyl)phenol], 15500 nM. Consider `Clc1ccc(C#Cc2cc(-c3nn(CCCN4CCOCC4)c4c3CNCC4)ccc2Cl)cc1` [Example 297, 3-{4-Chloro-3-[(4-chlorophenyl)ethynyl]phenyl}-1-(3-morpholin-4-ylpropyl)-4,5,6,7-tetrahydro-1H-pyrazolo[4,3-c]pyridine], for which the concentration for half-maximal inhibition (IC50) stood at 1600 nM. Still for that read-out and setting: with `CS(=O)(=O)N1CCc2c(c(-c3ccc(Cl)c(C#Cc4ccc(Cl)cc4)c3)nn2CC(O)CN2CCC3(CCNC3=O)CC2)C1` (stereo not drawn) [Example 298, 8-{3-[3-{4-Chloro-3-[(4-chlorophenyl)ethynyl]phenyl}-5-(methylsulfonyl)-4,5,6,7-tetrahydro-1H-pyrazolo[4,3-c]pyridin-1-yl]-2-hydroxypropyl}-2,8-diazaspiro[4.5]decan-1-one] the figure was 50 nM.

On to `CS(=O)(=O)N1CCc2c(c(-c3ccc(Cl)c(C#CCCO)c3)nn2CCCN2CCOCC2)C1` [Example 299, 4-{2-Chloro-5-[5-(methylsulfonyl)-1-(3-morpholin-4-ylpropyl)-4,5,6,7-tetrahydro-1H-pyrazolo[4,3-c]pyridin-3-yl]phenyl}but-3-yn-1-ol], for which the concentration for half-maximal inhibition (IC50) amounted to 4800 nM. The same measure, in the same setting: with `CS(=O)(=O)N1CCc2c(c(-c3ccc(Cl)c(CCCCO)c3)nn2CCCN2CCOCC2)C1` [Example 300, 4-{2-Chloro-5-[5-(methylsulfonyl)-1-(3-morpholin-4-ylpropyl)-4,5,6,7-tetrahydro-1H-pyrazolo[4,3-c]pyridin-3-yl]phenyl}butan-1-ol] the figure was 9200 nM; with `CS(=O)(=O)N1CCc2c(c(-c3ccc(Cl)c(CCCCCO)c3)nn2CCCN2CCOCC2)C1` [Example 301, 5-{2-Chloro-5-[5-(methylsulfonyl)-1-(3-morpholin-4-ylpropyl)-4,5,6,7-tetrahydro-1H-pyrazolo[4,3-c]pyridin-3-yl]phenyl}pentan-1-ol], 7050 nM. On the same count and under the same terms, with `CS(=O)(=O)N1CCc2c(c(-c3ccc(Cl)c(CCCO)c3)nn2CCCN2CCOCC2)C1` [Example 302, 3-{2-Chloro-5-[5-(methylsulfonyl)-1-(3-morpholin-4-ylpropyl)-4,5,6,7-tetrahydro-1H-pyrazolo[4,3-c]pyridin-3-yl]phenyl}propan-1-ol] the figure was 11500 nM. The same measure, in the same setting: with `CS(=O)(=O)N1CCc2c(c(-c3ccc(Cl)c(C#CCN)c3)nn2CCCN2CCOCC2)C1` [Example 303, 3-{2-Chloro-5-[5-(methylsulfonyl)-1-(3-morpholin-4-ylpropyl)-4,5,6,7-tetrahydro-1H-pyrazolo[4,3-c]pyridin-3-yl]phenyl}prop-2-yn-1-amine] the figure was greater than 20000 nM. On to `CS(=O)(=O)N1CCc2c(c(-c3ccc(Cl)c(CCCN)c3)nn2CCCN2CCOCC2)C1` [Example 304, 3-{2-Chloro-5-[5-(methylsulfonyl)-1-(3-morpholin-4-ylpropyl)-4,5,6,7-tetrahydro-1H-pyrazolo[4,3-c]pyridin-3-yl]phenyl}propan-1-amine], for which the IC50 came to 17000 nM. Same read-out and setting: with `CS(=O)(=O)N1CCc2c(c(-c3ccc(C(F)(F)F)c(C#CCNS(=O)(=O)c4ccccc4)c3)nn2CC(O)CN2CCOCC2)C1` (stereo not drawn) [Example 305, N-(3-{5-[1-(2-Hydroxy-3-morpholin-4-ylpropyl)-5-(methylsulfonyl)-4,5,6,7-tetrahydro-1H-pyrazolo[4,3-c]pyridin-3-yl]-2-(trifluoromethyl)phenyl}prop-2-yn-1-yl)benzenesulfonamide] the figure was 3950 nM. `CS(=O)(=O)N1CCc2c(c(-c3ccc(C(F)(F)F)c(CCCNS(=O)(=O)c4ccccc4)c3)nn2CC(O)CN2CCOCC2)C1` (stereo not drawn) [Example 306, N-(3-{5-[1-(2-Hydroxy-3-morpholin-4-ylpropyl)-5-(methylsulfonyl)-4,5,6,7-tetrahydro-1H-pyrazolo[4,3-c]pyridin-3-yl]-2-(trifluoromethyl)phenyl}propyl)benzenesulfonamide]: the half-inhibitory concentration (IC50) was determined as 3220 nM. On the same count and under the same terms, with `CS(=O)(=O)N1CCc2c(c(-c3ccc(Cl)c(C#CCN)c3)nn2CCCN2CCC(N3CCCC3=O)CC2)C1` [Example 307, 1-[1-(3-{3-[3-(3-Aminoprop-1-yn-1-yl)-4-chlorophenyl]-5-(methylsulfonyl)-4,5,6,7-tetrahydro-1H-pyrazolo[4,3-c]pyridin-1-yl}propyl)piperidin-4-yl]pyrrolidin-2-one] the figure was 4650 nM; with `CS(=O)(=O)N1CCc2c(c(-c3ccc(Cl)c(CCCN)c3)nn2CCCN2CCC(N3CCCC3=O)CC2)C1` [Example 308, 1-[1-(3-{3-[3-(3-Aminopropyl)-4-chlorophenyl]-5-(methylsulfonyl)-4,5,6,7-tetrahydro-1H-pyrazolo[4,3-c]pyridin-1-yl}propyl)piperidin-4-yl]pyrrolidin-2-one], 5650 nM. Same read-out and setting: next, `COC(=O)c1ccccc1S(=O)(=O)NCCCc1cc(-c2nn(CCCN3CCC(N4CCCC4=O)CC3)c3c2CN(S(C)(=O)=O)CC3)ccc1Cl` [Example 309, Methyl 2-{[(3-{2-chloro-5-[5-(methylsulfonyl)-1-{3-[4-(2-oxopyrrolidin-1-yl)piperidin-1-yl]propyl}-4,5,6,7-tetrahydro-1H-pyrazolo[4,3-c]pyridin-3-yl]phenyl}propyl)amino]sulfonyl}benzoate]: 320 nM.

Staying with this assay, now noted: CatS IC50.
As for `C[C@H]1COCCN1CCCn1nc(-c2ccc(Cl)c(C#Cc3ccc(Cl)c(CNCc4ccccc4)c3)c2)c2c1CCN(S(C)(=O)=O)C2` [Example 286, 1-[2-Chloro-5-({2-chloro-5-[1-{3-[(3S)-3-methylmorpholin-4-yl]propyl}-5-(methylsulfonyl)-4,5,6,7-tetrahydro-1H-pyrazolo[4,3-c]pyridin-3-yl]phenyl}ethynyl)phenyl]-N-(phenylmethyl)methanamine], the IC50 was found to be 30 nM. Still for that read-out and setting: next, `CS(=O)(=O)N1CCc2c(c(-c3ccc(Cl)c(C#Cc4ccc(Cl)c(CNCc5ccccc5)c4)c3)nn2CCCN2CCOCC2)C1` [Example 287, 1-[2-Chloro-5-({2-chloro-5-[5-(methylsulfonyl)-1-(3-morpholin-4-ylpropyl)-4,5,6,7-tetrahydro-1H-pyrazolo[4,3-c]pyridin-3-yl]phenyl}ethynyl)phenyl]-N-(phenylmethyl)methanamine]: 50 nM; `C[C@H]1COCCN1CCCn1nc(-c2ccc(Cl)c(C#Cc3ccc(Cl)c(CNCc4ccccn4)c3)c2)c2c1CCN(C(=O)C(N)=O)C2` [Example 289, 2-(3-{4-Chloro-3-[(4-chloro-3-{[(pyridin-2-ylmethyl)amino]methyl}phenyl)ethynyl]phenyl}-1-{3-[(3S)-3-methylmorpholin-4-yl]propyl}-1,4,6,7-tetrahydro-5H-pyrazolo[4,3-c]pyridin-5-yl)-2-oxoacetamide]: 10 nM. Still for that read-out and setting: next, `CS(=O)(=O)N1CCc2c(c(-c3ccc(Cl)c(C#Cc4ccc(F)c(CNCc5ccccc5)c4)c3)nn2CCCN2CCOCC2)C1` [Example 290, 1-[5-({2-Chloro-5-[5-(methylsulfonyl)-1-(3-morpholin-4-ylpropyl)-4,5,6,7-tetrahydro-1H-pyrazolo[4,3-c]pyridin-3-yl]phenyl}ethynyl)-2-fluorophenyl]-N-(phenylmethyl)methanamine]: 210 nM; `NC(=O)N1CCc2c(c(-c3ccc(Cl)c(C#Cc4ccc(Cl)c(CNCc5ccccn5)c4)c3)nn2CCCN2CCSCC2)C1` [Example 292, 3-{4-Chloro-3-[(4-chloro-3-{[(pyridin-2-ylmethyl)amino]methyl}phenyl)ethynyl]phenyl}-1-(3-thiomorpholin-4-ylpropyl)-1,4,6,7-tetrahydro-5H-pyrazolo[4,3-c]pyridine-5-carboxamide]: 20 nM.

Regarding `C[C@H]1COCCN1CCCn1nc(-c2ccc(Cl)c(C#Cc3ccc(Cl)c(CNCCO)c3)c2)c2c1CCN(S(C)(=O)=O)C2` [Example 293, 2-({[2-Chloro-5-({2-chloro-5-[1-{3-[(3S)-3-methylmorpholin-4-yl]propyl}-5-(methylsulfonyl)-4,5,6,7-tetrahydro-1H-pyrazolo[4,3-c]pyridin-3-yl]phenyl}ethynyl)phenyl]methyl}amino)ethanol], the concentration for half-maximal inhibition (IC50) came out at 50 nM.
